A short description of series [1]: Measurement of transmittances of aqueous draw solute solutions according to temperature variation (UV/IR spectrometer). The format is physicochemical. Here is the method:
For this observation, the transmittances of aqueous solutions of the draw solutes were measured using a UV/IR spectrometer.

Series [2] is described as follows: Measurement of flows and fluxes of water in forward osmosis through cellulose acetate semi-permeable membrane (brine vs draw solution).
Protocol: Referring to FIG. 11, the system has a structure in which glass tubes are arranged to face each other through a semi-permeable membrane. Unpurified water is arranged in one of the glass tubes and a draw solution is arranged in the other glass tube. After the glass tubes are placed in a temperature-controllable water bath, water desalination and purification experiments are conducted. Specifically, the experiments using LCST draw solutes are carried out in the order of low temperature (homogeneous phase) and high temperature (phase transition). The experiments using UCST draw solutes are carried out in the order of high temperature (homogeneous phase) and low temperature (phase transition). As the semi-permeable membrane, a cellulose acetate semi-permeable membrane is used. Specifically, the semi-permeable membrane includes a support layer composed of a polyester fiber coated with polyethylene and a dense layer composed of a cellulose triacetate fiber. The semi-permeable membrane is characterized by the ability to remove 95% or more of salts and low-molecular-weight materials.
Forward osmosis experiments were conducted at laboratory level using the thermo-responsive draw solutes synthesized above. The fluxes and directivities of water at low/high temperatures were confirmed with varying concentrations of brines and the draw solutions.
A stirrer was installed to maintain a uniform state of the solution in each glass tube and a thermostatic bath was installed for temperature control. After the temperature was maintained constant, the flux of water was measured. The amount of water flowing through the membrane was expressed in volume per unit area of the membrane and unit time (L/m^2h, LMH). The fluxes and directivities of water at low and high temperatures were measured at time points of each experiment. For better visual observation, a slight amount of dye was added to the system.
A short description of series [3]: Verification of reproducibility of forward osmosis experiments (repeated low/high temperature cycles). To be noted: 2.0 M nBu-DETA, positive = flow from brine to nBu-DETA solution. An excerpt:
A draw solute for a forward osmosis process should be able to be continuously reused after the process. […] FIG. 26 is a graph showing changes in the flux of water during repeated experiments using 2.0 M nBu-DETA.
In a conventional process using ammonium carbonate/ammonium hydroxide, recondensation is required to reuse recovered ammonia and carbon dioxide molecules. In contrast, in the three repeated cycles of forward osmosis using nBu-DETA as a draw solute, any special process for dissolution except stirring was not carried out but the solute having undergone a phase transition were dissolved when hot water was exchanged with cold water in the thermostatic bath. As a result, similar levels of fluxes were obtained, which can be seen from FIG. 26 and Table 9.

The mark [4] stands for this setting: aqueous solution of LCST draw solute at temperatures lower than the reference temperature.
The mark [5] stands for this setting: aqueous solution of UCST draw solute at temperatures equal to or higher than the reference temperature.

Molecules are shown by their SMILES.

For `CCCCCCOCCOCCO` [DEH], the Transmittance in series [1] (setting [4]) is given as 100%. In addition, the “Flux (LMH)” value in series [2] (2 M DEH, 0.025 M NaCl, 40 (+0.5)° C., flow direction DEH→NaCl) was determined as 1.6422 LMH; in series [2] (2 M DEH, 0.05 M NaCl, 40 (+0.5)° C., DEH→NaCl), 1.1 LMH; in series [2] (2 M DEH, 0.1 M NaCl, 40 (+0.5)° C., DEH→NaCl), 0.71 LMH; in series [2] (2 M DEH, 0.15 M NaCl, 40 (+0.5)° C., DEH→NaCl) it was 0.36 LMH; in series [2] (4.0 M DEH, 0.60 M NaCl, 18 (±0.5)° C., flow direction NaCl→DEH) it was 0.29 LMH.
`OCCOc1ccccc1` [EGPE] displayed a Transmittance in series [1] (setting [5]) of 100%. Moreover, in series [2] (6.4 M EGPE, 0.15 M brine, 5° C. (phase transition)), the “Flux of water from EGPE to NaCl” value is 0.036 LMH. The “Flux of water from NaCl to EGPE” value in series [2] (6.4 M EGPE, 0.3 M brine, 50° C.) amounted to 0.14 LMH.
In series [1] (setting [5]), `CC(C)C(=O)O` [IBA] displayed a Transmittance of 100%.
In turn, `CC(C)C(N)=O` [IBAm] returned a Transmittance in series [1] (setting [5]) of 100%.
On to `CCCCNC(=O)CC` [N-BPA], for which the Transmittance in series [1] (setting [4]) turned out to be 100%.
On the same count and under the same terms, the value for `CCCCCOCC(C)O` (stereo not drawn) [PNP] was 100%; that for `CCCCC(=O)NCCCN(C)CCCNC(=O)CCCC` [Val-DAPMA] was 100%; that for `CCCCC(=O)NCCN(CC)CC` [Val-DEEA] was 100%.
Still for that read-out and setting: as for `CCN(CC)CCNC(=O)C(C)C` [iBu-DEEA], the figure is 100%; as for `CCCC(=O)NCCCN(C)CCCNC(=O)CCC` [nBu-DAPMA], 100%.
Turning to `CCCC(=O)NCCN(CCNC(=O)CCC)C(=O)CCC` [nBu-DETA], the “Flux (L/m^2h)” value is reported as 0.61 L/m^2h in series [3] (18° C., 1 Cycle); 0.71 L/m^2h in series [3] (18° C., 2 Cycle); 0.71 L/m^2h in series [3] (18° C., 3 Cycle); −0.64 L/m^2h in series [3] (70° C., 1 Cycle); −0.79 L/m^2h in series [3] (70° C., 2 Cycle); −0.61 L/m^2h in series [3] (70° C., 3 Cycle). The molecule also came in with a Transmittance in series [1] (setting [4]) of 100%. Also, the Flux of water was 1.3 LMH in series [2] (0.5M nBu-DETA draw solution, 0.050M NaCl, 18 (±0.5)° C., flow direction NaCl→nBu-DETA); 0.90 LMH in series [2] (0.5M nBu-DETA, 0.10M NaCl, 18 (±0.5)° C., NaCl→nBu-DETA); 0.52 LMH in series [2] (0.5M nBu-DETA, 0.15M NaCl, 18 (±0.5)° C., NaCl→nBu-DETA); 1.5 LMH in series [2] (1.0M nBu-DETA, 0.10M NaCl, 18 (±0.5)° C., NaCl→nBu-DETA); 0.93 LMH in series [2] (1.0M nBu-DETA, 0.15M NaCl, 70 (±0.5)° C., nBu-DETA→NaCl); 0.77 LMH in series [2] (1.0M nBu-DETA, 0.20M NaCl, 18 (±0.5)° C., NaCl→nBu-DETA). In addition, the Flux of water in series [2] (1.0M nBu-DETA, 0.2M NaCl, 70 (±0.5)° C., nBu-DETA→NaCl) was 0.96 LMH; in series [2] (1.0M nBu-DETA, 0.30M NaCl, 18 (±0.5)° C., NaCl→nBu-DETA), 0.52 LMH; in series [2] (1.0M nBu-DETA, 0.35M NaCl, 70 (±0.5)° C., nBu-DETA→NaCl), 1.4 LMH; in series [2] (1.0M nBu-DETA, 0.5M NaCl, 70 (±0.5)° C., nBu-DETA→NaCl), 1.8 LMH; in series [2] (1.6M nBu-DETA, 0.15M NaCl, 70 (±0.5)° C., nBu-DETA→NaCl) it was 1.2 LMH; in series [2] (1.6M nBu-DETA, 0.25M NaCl, 70 (±0.5)° C., nBu-DETA→NaCl), 1.2 LMH. The Flux of water in series [2] (1.6M nBu-DETA, 0.35M NaCl, 70 (±0.5)° C., nBu-DETA→NaCl) was 1.3 LMH; in series [2] (1.6M nBu-DETA, 0.5M NaCl, 70 (±0.5)° C., nBu-DETA→NaCl), 1.2 LMH; in series [2] (2.0M nBu-DETA, 0.05M NaCl, 70 (±0.5)° C., flow direction nBu-DETA→NaCl), −0.071 LMH; in series [2] (2.0M nBu-DETA, 0.1M NaCl, 70 (±0.5)° C., nBu-DETA→NaCl) it was 0.36 LMH; in series [2] (2.0M nBu-DETA, 0.15M NaCl, 70 (±0.5)° C., nBu-DETA→NaCl), 0.75 LMH; in series [2] (2.0M nBu-DETA, 0.20M NaCl, 18 (±0.5)° C., NaCl→nBu-DETA), 1.7 LMH. Further, the Flux of water amounted to 0.96 LMH in series [2] (2.0M nBu-DETA, 0.25M NaCl, 70 (±0.5)° C., nBu-DETA→NaCl); 1.2 LMH in series [2] (2.0M nBu-DETA, 0.35M NaCl, 70 (±0.5)° C., nBu-DETA→NaCl); 0.65 LMH in series [2] (2.0M nBu-DETA, 0.40M NaCl, 18 (±0.5)° C., NaCl→nBu-DETA); 1.4 LMH in series [2] (2.0M nBu-DETA, 0.5M NaCl, 70 (±0.5)° C., nBu-DETA→NaCl); 0.26 LMH in series [2] (2.0M nBu-DETA, 0.60M NaCl, 18 (±0.5)° C., NaCl→nBu-DETA).
In turn, `CCCC(=O)NCCN(C(C)C)C(C)C` [nBu-DIPA] gave a Transmittance in series [1] (setting [4]) of 100%.

For the origin of these results see US9550728B2, “Thermo-responsive draw solute for forward osmosis and method for water desalination and purification using the same” (SEOUL NATIONAL UNIVERSITY R&DB FOUNDATION, priority 2011, dated 2017).
